Data set [1] concerns POPC and POPC:Chol (2:1) LUV, erythrocytes and PBMCs. The data set is classed as binding, human.
The conditions of data set [2]: pH 7.4.
The conditions of data set [3]: pH 7.4. The source holds these as a separate data set.
The subject of data set [4] is Erythrocytes. The data set is classed as binding, human. Particulars: for Kd: read-out: Kd (apparent dissociation constant), Erythrocytes.
In data set [5] the test system is PBMCs. The data set is classed as binding, human. The settings on record: for Kd: read-out: Kd (apparent dissociation constant), PBMCs.

Like-named read-outs stand apart in the source and are kept apart here.

For the molecule `CC(C)CCC[C@@H](C)[C@H]1CC[C@H]2[C@@H]3CC=C4C[C@@H](O)CC[C@]4(C)[C@H]3CC[C@]12C` [cholesterol], the “change in membrane dipole potential (di-8-ANEPPS)” value in data set [1] is “no changes in dipole potential were observed”.
On to “VIKI–GSGSG-C-dPEG4–Cys–(CH2CONH2) [VIKI-dPEG4]”, for which, in data set [2], the “maximum fluorescence emission wavelength, free in solution” value is reported as 356 nm. For the same molecule, the “secondary structure by CD” value in data set [3] is “random coil”.
With tocopherol, the “change in membrane dipole potential (di-8-ANEPPS)” value in data set [1] was “no changes in dipole potential were observed”.
As for “VIKI–GSGSG–C-dPEG4–Cys–cholesterol [VIKI-dPEG4-Chol]”, in data set [4], the “Rmin, Erythrocytes” value was −0.33 ± 0.01. Moreover, the Kd in data set [4] (1.4% DMSO) amounted to 130 ± 30 nM; in data set [5] (1.4% DMSO), 300 ± 120 nM. Moreover, the “Rmin, PBMCs” value in data set [5] is reported as −0.23 ± 0.02.
Turning to “VIKI–GSGSG–C-dPEG4–Cys–tocopherol [VIKI-dPEG4-Toco]”, in data set [4], the “Rmin, Erythrocytes” value is recorded as −0.30 ± 0.01 and the Kd was 140 ± 30 nM. In addition, in data set [5], the “Rmin, PBMCs” value is −0.29 ± 0.02 and the Kd amounted to 510 ± 120 nM.
“VIKI–GSGSG–C-dPEG4–Cys-(PEG4-bis-tocopherol) [VIKI-dPEG4-bisToco]”: in data set [4], the “Rmin, Erythrocytes” value is −0.22 ± 0.01 and the Kd turned out to be 90 ± 30 nM. In data set [5], the “Rmin, PBMCs” value was −0.27 ± 0.01 and the Kd turned out to be 180 ± 40 nM.
Take “VIKI–GSGSG–C-dPEG4–Cys–(PEG4-bis-cholesterol) [VIKI-dPEG4-bisChol]”: the “Rmin, Erythrocytes” value in data set [4] is reported as −0.36 ± 0.01. For the same molecule, the Kd in data set [4] (1.4% DMSO) turned out to be 70 ± 20 nM; in data set [5] (1.4% DMSO) it was 220 ± 50 nM. For the same molecule, the “Rmin, PBMCs” value in data set [5] was −0.24 ± 0.01.

The values above are taken from article PMC8945041 (Biomedicines, 2022).
